From US9399631B2, “Polyphenol proteasome inhibitors, synthesis, and methods of use” (UNIVERSITY OF SOUTH FLORIDA, priority 2003, dated 2016)

Legend:
LNCaP cells [1] = experiment: Soft agar colony formation assay; type: cell-based, human; conditions: 10 μM, 14 day-incubation
Protocol: Soft Agar Assay. The soft agar assay was performed according to Smith et al. (Smith, D. M. et al. Mol Med, 2002, 8:382-392) with a few modifications. In brief, in a six-well plate, a bottom feeder layer (0.6% agar) was prepared with DMEM media containing 10% fetal bovine serum, 100 units/ml penicillin, and 100 μg/ml streptomycin. A top layer (0.3% agar) was prepared with DMEM and the same media as described above but containing 2×10^4 prostate cancer LNCaP cells and indicated analogs or DMSO as a control. Plates were incubated at 37° C. in 5% CO2 in a humidified incubator for two weeks. MTT (1 mg/ml) was added to each well and incubated overnight to allow complete formation of purple formazan crystals. The plates were then scanned and photographed, and the number of colonies was quantified by QUANTITY ONE v.4.0.3 software (Bio-Rad, Hercules, Calif.).
The […] effects of several GTP analogs were investigated with a soft agar assay that measures the transforming activity of human tumor cells. LNCaP cells were plated in soft agar (see Materials and Methods) along with 50 μM of GTP-1, -2, -3, (−)-EGCG (as a positive control; Smith, D. M. et al. Mol Med, 2002, 8:382-392, 2002), or the solvent (as a negative control), followed by a 14 day-incubation to allow for colony formation (FIGS. 12A and 12B).
In a second experiment, LNCaP cells were plated in soft agar along with 10 μM of each indicated GTP or solvent (H2O), followed by a 14 day-incubation to allow for colony formation (FIG. 21A). […] Colonies were quantified with an automated counter and presented as mean values from triplicate independent experiments. Error bars denote standard deviations.

[2] = target: T1, 20S eukaryotic proteasome (Oryctolagus cuniculus, UniProt G1T4Q9); experiment: Inhibition of chymotrypsin-like activity of purified eukaryotic 20S proteasome (Suc-Leu-Leu-Val-Tyr-AMC); type: biochemical, rabbit; conditions: chymotrypsin-like activity, rabbit 20S proteasome
T1 construct: purchased BOSTON BIOCHEM (Cambridge, Mass.)
T1 sequence (G1T4Q9 1-263): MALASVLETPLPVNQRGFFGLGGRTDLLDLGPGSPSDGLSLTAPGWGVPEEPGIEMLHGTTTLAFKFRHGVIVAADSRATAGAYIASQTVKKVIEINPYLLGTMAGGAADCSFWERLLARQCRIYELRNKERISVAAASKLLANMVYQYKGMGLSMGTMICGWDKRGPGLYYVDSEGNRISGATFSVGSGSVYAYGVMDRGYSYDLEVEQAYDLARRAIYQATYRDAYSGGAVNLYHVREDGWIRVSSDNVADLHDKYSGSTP
Protocol: Materials. Highly purified tea polyphenols (−)-EGCG (>95%), (−)-GCG (>98%), (−)-ECG (>98%), (−)-CG (>98%), fetal calf serum, propidium iodide, 3-[4,5-dimethylthiazol-2-yl]-2,5-diphenyltetrazolium bromide (MTT), RNase A, and DMSO were purchased from Sigma (St. Louis, Mo.). (+)-EGCG, benzyl-protected-(+)-EGCG, (+)-GCG, (−)-EGCG-amide, and (+)-EGCG-amide were prepared by enantioselective synthesis (see below). Purified 20S eukaryotic proteasome from rabbit was purchased from BOSTON BIOCHEM (Cambridge, Mass.). Purified 20S prokaryotic proteasome (Methanosarcina thermophile, Recombinant, E. coli) was purchased from CALBIOCHEM (La Jolla, Calif.). Fluorogenic peptide substrates Suc-Leu-Leu-Val-Tyr-AMC (for the proteasomal chymotrypsin-like activity) was obtained from Calbiochem (La Jolla, Calif.). RPMI 1640 medium, Dulbecco's modified Eagle's medium, MEM non-essential amino acids solution, MEM-sodium pyruvate solution, penicillin, and streptomycin were from INVITROGEN (Carlsbad, Calif.). Monoclonal antibody to p27^Kip was purchased from PHARMINGEN (San Diego, Calif.); polyclonal antibodies to IκB-α, Bax and actin, and monoclonal antibody to ubiquitin were from SANTA CRUZ Biotechnology Inc. (Santa Cruz, Calif.).
(§1) Inhibition of purified 20S proteasome activity by natural or synthetic GTPs. Purified prokaryotic (0.5 μg) or eukaryotic (0.02 μg) 20S proteasome was incubated with 20 μM fluorogenic peptide substrate, Suc-Leu-Leu-Val-Tyr-AMC for 30 min at 37° C. in […] of assay buffer (50 mM Tris-HCl, pH 7.5), with or without a natural or synthetic tea polyphenol. After incubation, production of hydrolyzed 7-amido-4-methyl-coumarin (AMC) groups was measured using a multi-well plate VERSAFLUOR Fluorometer with an excitation filter of 380 nm and an emission filter of 460 nm (BIO-RAD), and a multi-well plate reader Wallac 1420 VICTORTM^2 with an excitation filter of 355 nm and an emission filter of 460 nm (EG&G WALLAC).
Purified prokaryotic (0.5 μg) or eukaryotic (0.02 μg) 20S proteasome was incubated with 20 μM fluorogenic peptide substrate, Suc-Leu-Leu-Val-Tyr-AMC for 30 minutes at 37° C. in 100 μl of assay buffer ([…] Tris-HCl, pH 7.5), with or without a natural or synthetic tea polyphenol. After incubation, production of hydrolyzed AMC groups was measured using a multi-well plate VERSAFLUOR Fluorometer with an excitation filter of 380 nm and an emission filter of 460 nm.
(−)-EGCG at 1 μM was incubated with eukaryotic 20S proteasome (0.02 μg) and suc-LLVY-AMC (20 μM) for the times indicated in FIG. 7. The chymotrypsin activity was measured and graphed in FIG. 7. Values are means from 4 independent experiments, and error bars represent standard deviations.
In the second experiment (−)-EGCG at 1 μM was pre-incubated with (SDS-pre) or without 0.01% SDS (no SDS) for 1 hour, followed by addition of eukaryotic 20S proteasome (0.02 μg) and suc-LLVY-AMC (20 μM). “SDS-post” represents the same treatment as “no SDS” except 0.01% SDS was added 1 hour after addition of the proteasome, (−)-EGCG and the substrate. AMC liberation was measured by fluorescence at each indicated time point and the percentage of chymotrypsin activity was determined. Values are means from 4 independent experiments, and error bars represent standard deviations.

LNCaP cells [3] = experiment: Flow cytometry cell cycle analysis, LNCaP cells; type: cell-based, human; conditions: 10 μM, 24 hours
Protocol: (§2) Flow Cytometry. Cell cycle analysis based on DNA content was performed as in An et al. (An, B. et al. Cell Death Differ, 1998, 5:1062-75). At each time point, cells were harvested, counted, and washed twice with PBS. Cells (5×10^6) were suspended in 0.5 ml PBS, fixed in 5 ml of 70% ethanol overnight at −20° C., centrifuged, resuspended again in 1 ml of propidium iodide staining solution (50 μg propidium iodide, 100 units RNase A and 1 mg glucose per ml PBS), and incubated at room temperature for 30 minutes. The cells were then analyzed with FACScan (Becton Dickinson Immunocytometry, Calif.), ModFit LT and WinMDI V.2.8 cell cycle analysis software (Verity Software; Topsham, Me.). The cell cycle distribution is shown as the percentage of cells containing G1, S, G2, and M phase DNA judged by propidium iodide staining The apoptotic population is determined as the percentage of cells with sub-G1 DNA content (<G1).
It has been shown that overexpression of p27 and IκB-α results in G1 arrest. If increased levels of these proteasome target proteins by synthetic GTPs are functional, it would be expected to see growth arrest of tumor cells in G1 phase. To test this hypothesis, asynchronous prostate LNCaP cells were treated with 10 μM of synthetic (+)-EGCG or (+)-GCG, along with each respective natural GTP as control, for 24 hours. Cells were then harvested, and analyzed by cell cycle analysis by flow cytometry. […] Growth arrest was determined by the increase in the percentage of the G1 population.

purified 20S proteasome [4] = target: T2, purified 20S proteasome (UniProt G1T4Q9); experiment: Inhibition of chymotrypsin-like activity of purified 20S proteasome (source not stated); type: biochemical; conditions: chymotrypsin-like activity of purified 20S proteasome
T2 construct: IC50; other: chymotrypsin-like activity of purified 20S proteasome
Protocol: as §1

LNCaP cells [5] = experiment: Western blot of proteasome target proteins in LNCaP cells; type: cell-based, human; conditions: 50 μM, 3 to 12 hours
Protocol: Cell Culture, Cell Extract Preparation, and Western Blot Assay. Human leukemia Jurkat T and prostate cancer LNCaP cells were cultured in RPMI 1640 medium supplemented with 10% fetal calf serum, 100 units/ml of penicillin, and 100 μg/ml streptomycin. Human immortalized, non-transformed NK cells (YT cell line) (38) were cultured in RPMI 1640 supplemented with 1 mM MEM sodium pyruvate solution, 0.1 mM MEM non-essential amino acids solution, 10% fetal calf serum. 100 units/ml penicillin, and 100 μg/ml streptomycin. Normal (WI-38) and simian virus 40 (SV40)-transformed (VA-13) human fibroblasts were grown in Dulbecco's modified Eagle's medium supplemented with 10% fetal calf serum, 100 units/ml of penicillin and 100 μg/ml of streptomycin. All cells were maintained at 37° C. in a humidified incubator with an atmosphere of 5% CO2. A whole cell extract was prepared in accordance with An et al. (An, B. et al. Cell Death Differ, 1998, 5:1062-75). Briefly, cells were harvested, washed with PBS twice, and homogenized in a lysis buffer [50 mM Tris-HCl (pH 8.0), 5 mM EDTA, 150 mM NaCl, 0.5% NP-40, 0.5 mM phenylmethylsulfonyl fluoride, and 0.5 mM dithiothreitol] for 30 min at 4° C. Afterwards, lysates were centrifuged at 12,000×g for 15 min at 4° C., and the supernatants were collected as whole cell extracts. Equal amounts of protein extract (60 μg) were resolved by SDS-polyacrylamide gel electrophoresis and transferred to a nitrocellulose membrane using a Semi-Dry Transfer system (BIO-RAD, Hercules, Calif.). Jurkat T, LNCaP, or DU-145 cells were treated with various concentrations of synthetic or natural tea polyphenols for indicted hours. The enhanced chemiluminescence (ECL) Western blot analysis was then performed using specific antibodies to the proteins of interest (p^27kip, IκB-α, PARP, Bax or actin). The ratio of p27 or IκB-α to the corresponding actin was determined by scanning intensities of the protein bands.
To investigate whether (−)-EGCG-amide and (+)-EGCG-amide inhibit intact tumor cell proteasome activity, human prostate cancer LNCaP cells were treated with 25 μM of (−)- or (+)-EGCG-amide for up to 9 hours, followed by measurement of p27, IκB-α and Bax, three well-known proteasome target proteins (Pagano, M. et al. Science, 1995, 269:682-685; An, B. et al. Cell Death Differ, 1998, 5:1062-75; Sun, J. et al. Cancer Res, 2001, 61:1280-1284; Palombella, V. J. et al. Cell, 1994, 78:773-785; Thompson, J. E. et al. Cell, 1995, 80:573-582; Perkins, N. D. Trends Biochem Sci, 2000, 25:434-440; Chang, Y. C. et al. Cell Growth Differ, 1998, 9:79-84; Li, B. and Dou, Q. P. Proc Natl Acad Sci USA, 2000, 97:3850-3855; Nam, S. et al. Cancer Epidemiol Biomarkers Prey, 2001, 10:1083-1088). In this experiment (−)-EGCG and (+)-EGCG were used as positive controls.
Having determined that the synthetic GTP-1 to −5 analogs are able to inhibit the proteasomal chymotrypsin-like activity in vitro (FIG. 8), these compounds were investigated for their potency in inhibiting intact tumor cellular proteasome activity. To do so, human prostate cancer LNCaP cells were treated with one of these compounds for the indicated hours, followed by measuring levels of proteasome target proteins, p27, IκB-α, and Bax, and polyubiquitinated proteins.

Jurkat T cells = experiment: Flow cytometry cell cycle analysis, Jurkat T cells; type: cell-based, human; conditions: 24 hours
Protocol: as §2
Previous studies have shown that overexpression of p27 (Pagano, M. et al. Science, 1995, 269:682-685), IκB-α (Verma, I. M. et al. Genes Dev, 1995, 9:2723-2735), and Bax (Li, B. and Dou, Q. P. Proc Natl Acad Sci USA, 2000, 97:3850-3855) results in G1 arrest or apoptosis. If increased levels of these proteasome target proteins by the synthetic EGCG analogs are functional, growth inhibition of tumor cells would be expected. […] The G1 population was indeed increased by 26% and 9% by treatment with GTP-4 and GTP-5, respectively (FIG. 11).

purified 20S proteasome [6] = experiment: Inhibition of chymotrypsin-like activity of purified 20S proteasome (source not stated); type: biochemical
Protocol: as §1

Row | Molecule | IC50 (purified 20S proteasome [4]) [nM] | levels of Bax protein (LNCaP cells [5]) | levels of proteasome target proteins (p27, IκB-α) (LNCaP cells [5]) | increase of G1 population (Jurkat T cells) [%] | increase of sub-G1 DNA cell population (Jurkat T cells) [%] | inhibition of the proteasome (in words) (purified 20S proteasome [6]) | other results
1 | O=C(OC1Cc2c(O)cc(O)cc2OC1c1cc(O)c(O)c(O)c1)c1cc(O)c(O)c(O)c1 (single isomer, unassigned; (-)) [(−)-GCG, reference compound] | – | – | – | – | – | – | inhibition of colony formation (LNCaP cells [1]): 99%; IC50 [2]: 610 nM; increase of G1 population (G1 arrest) (LNCaP cells [3]): ~14%
2 | O=C(O[C@H]1Cc2ccccc2C[C@H]1OC(=O)c1cc(O)c(O)c(O)c1)c1cc(O)c(O)c(O)c1 [GTP-4] | 340 | increased only at 12 hours | significant increase in levels of p27 and IκB-α | 26 | ~15 | – | –
3 | O=C(O[C@H]1Cc2cc(O)ccc2C[C@H]1OC(=O)c1cc(O)c(O)c(O)c1)c1cc(O)c(O)c(O)c1 [GTP-5] | 730 | increased only at 12 hours | significant increase in levels of p27 and IκB-α | 9 | ~15 | – | –
4 | COC(C)=O [methyl acetate, reference compound] | – | – | – | – | – | cannot inhibit the proteasome | –
5 | COC(=O)c1cc(O)c(O)c(O)c1 [methyl gallate, reference compound] | – | – | – | – | – | cannot inhibit the proteasome | –
6 | benzyl hydroxybenzoate [reference compound] | – | – | – | – | – | cannot inhibit the proteasome | –
